The numbers were not newly measured in US20150182489A1, “GOLD (III) COMPOUNDS AND USE FOR TREATING CANCER” (King Abdulaziz City for Science and Technology, priority 2013, published 2015), which cites them from elsewhere.

Molecules are shown by their SMILES. Where two headings read alike, the source gives them in different places.

In the case of `N.N.[Cl][Pt][Cl]` [cisplatin, cis-diamminedichloroplatinum(II)], the renal histopathology entry in the data set on rats (rats, 0.4 mg/kg intraperitoneally for 8 weeks (Ravindra et al)) was “marked proximal tubular dilation and desquamation along with acute tubular necrosis”; in the data set on rats (rats, 15 mg/kg of body weight intraperitoneally (Hanigan et al)) it was “grade 4 tubular necrosis”; in the data set with rats (single intraperitoneal dose of 7.5 mg/kg (Atasayara et al)), “remarkable epithelial vacuolation, necrosis, and desquamation of cells with protein casts in renal tubules”. Also, the hepatic histopathology entry in the data set with rats liver (10 mg/kg (Avci et al)) is “sinusoidal congestion, hydropic and vacuolar degeneration, extensive disorganization in hepatocytes, and significant fibrosis around central venules and expanded periportal areas”; in the data set with rats liver (single intraperitoneal 6.5 mg/kg dose (Kart et al)), “moderate to severe hydropic degeneration in centrilobular zones extending towards the portal region”.
For `COc1cccc2c1C(=O)c1c(O)c3c(c(O)c1C2=O)C[C@@](O)(C(=O)CO)C[C@@H]3O[C@H]1C[C@H](N)[C@H](O)[C@H](C)O1` [doxorubicin], the “hepatotoxicity relative to 5-FU treatment” value with rats liver (rats liver (El-Sayyad et al)) is recorded as “increased hepatoxicity in comparison to 5-FU treatment”.
